Tested on: Fathead Minnow (pimephales promelas)
Test: Acute toxicity survival test
Type: in vivo
Settings: Flathead Minnows
Protocol: As a consequence, the “definitive” test gave a more precise LC50 value. LC50 was determined using a log-normal transformation coupled with linear regression between the bracketing no observed effect concentration (NOEC) and lowest observed effect concentration (LOEC). Both the range finding and definitive tests were run on Example 4 and Example 5. Only the ranging finding test was run for TMAC and Example 3.

Row | SMILES | toxicity to minnows compared with TMAC
1 | CCOS(=O)(=O)[O-].CC[N+](CCO)(CCO)CCO [Example 5] | much less toxic than TMAC
2 | OCC[N+](CCO)(CCO)Cc1ccccc1.[Cl-] [Example 4] | much less toxic than TMAC
